From patent US12061143B2, “Methods for rapid determinations of antibiotic susceptibility phenotypes” (priority 2018, dated 2024)

Key:
Experiment in all cases: FAST flow cytometry AST with PB-sQF, bacteria recovered from 10% human blood
Type in all cases: cell-based
[1] = tested on: K. pneumoniae strain Mu55; settings: ~8 CFU/mL after 10-fold dilution
Experimental: (§1) Varied counts of bacteria were mixed with human blood and diluted 1:9 (v/v) with bacterial growth medium to desired bacterial concentrations (<10 CFU/mL final solution) and plated to independently confirm CFU/mL blood. Saponin was immediately added and the samples shaken for 15 minutes to achieve selective blood cell lysis. After hemolysis, bacteria were spun down and washed with PBS. The pellets were resuspended in bacterial growth medium and incubated at 37° C. for 2 hours, followed by another 3-hour incubation with antibiotics at various fractions of the minimum inhibition concentration (MIC, as independently determined by microdilution from the pure starting culture, Table 1) for sensitive strains or at the CLSI MIC resistant breakpoints^(12) for the highly resistant strains. Changes in scattered light signals largely resulting from bacterial growth inhibition were monitored by flow cytometry, and the difference in the 2-D scatter histograms with and without antibiotic treatment was quantified with PB-sQF statistics.^(1) Using PB-sQF, distance was calculated for each antibiotic concentration relative to its own no-antibiotic control and expressed as “fold distance” relative to the 99% confidence limit distance between the no-antibiotic control and the sensitive breakpoint. This allowed comparison of fold distances among all samples as each is individually paired to its own control, as is each replicate.
(§2) To simulate a blood specimen from a patient with bacteremia, the isolates were grown, diluted to the desired CFU/mL in blood (ZenBio, Research Triangle Park, NC) and saponin was added to achieve the final diluted sample. Initial bacterial cultures were prepared using Luria-Bertani (LB) broth for (E. coli) or cation-adjusted Mueller-Hinton broth (CAMHB). The fresh bacterial cultures started from ˜0.05 optical density (OD) by inoculating a 6-mL fresh growth medium with overnight culture were grown in an incubator shaker (MaxQ 4000, Thermal Fisher Scientific, Waltham, MA) at 37° C. and 225 rpm. After the culture reached mid-log phase, bacteria were collected and diluted into ˜10 CFU/mL through serial 10-fold dilutions. Bacterial densities were determined by plating onto LB plates. The final 10-fold dilution was performed by adding 500 μL of 100 CFU/mL into 4500 μL of 10% human blood in medium.
(§3) A 2.5% (w/v) of saponin solution was prepared, sonicated (Branson 2510, Emerson, St. Louis, MO) for 20 minutes and spun down with a clinical centrifuge (Centrific Model 228, Fisher Scientific, Waltham, MA) for 4 minutes. The supernatant cleared of particulates was collected. 500 μL of 2.5% saponin was then added to the 5 mL of 10% human blood sample with ˜10 CFU/mL, described above and the mixtures were shaken at 300 rpm for 15 minutes at 37° C. After the saponin treatment, the bacteria were pelleted and washed with 2 mL of phosphate buffered saline (PBS) (Life Technologies, Carlsbad, CA) using a clinical centrifuge for 2 minutes. Bacterial growth medium (2.5 mL) was then added to the tube and incubated for 2 hours at 37° C. and 225 rpm.
(§4) After the 2-hour incubation, 500-μL aliquots of the suspension were added to each of 4 wells in a 12-well microtiter plate that contained 500 μL of growth medium with or without antibiotic at 2-fold of specified concentrations. The plate was then incubated at 37° C. for 3 hours. Bacteria were collected by centrifugation (Centrifuge 5417R, Eppendorf) and resuspended in 200 μL of PBS for flow cytometry detection. To ensure each clinical isolate was tested at its MIC values of the tested antibiotics, the initial bacterial cultures at the 1000 CFU/mL dilution were also tested for each experiment (FIGS. 4A-4F, 5A-5F, 7A-7F, 8A-8F, and 9A-9F), confirming that the antibiotic concentrations indeed inhibited bacterial growth.
(§5) Cytometric data were collected by BD LSRFortessa flow cytometer (Becton Dickinson, Franklin Lake, NY) equipped with a 100 mW, 488 nm laser for the scatter signal. […]

E. coli strain Mu14S = tested on: E. coli strain Mu14S
Experimental: as §1, §2, §3, §4, §5

E. coli strain Mu890 = tested on: E. coli strain Mu890
Experimental: as §1, §2, §3, §4, §5

[2] = tested on: K. pneumoniae strain Mu670; settings: ~9 CFU/mL after 10-fold dilution
Experimental: as §1, §2, §3, §4, §5

In the case of Gentamicin, the “PB-sQF FAST result” value [1] was “appropriate”, the “FAST antibiotic-induced scatter signal change” value (E. coli strain Mu14S; Mu14S treated at the MIC) was “exhibits growth inhibition” and the “PB-sQF fold distance average versus the paired-control” value (E. coli strain Mu14S; Mu14S, 1×MIC, triplicate data) was “clear differences”. The “PB-sQF fold distance-based FAST result” value (E. coli strain Mu890; Mu890, beyond the 99% confidence level) was “effective”, the “FAST antibiotic-induced scatter signal change” value (E. coli strain Mu890; Mu890 treated at the MIC, 3-hr incubation, vs paired no-antibiotic control) was “effective growth inhibition” and the “PB-sQF FAST result” value [2] was “appropriate”.
